Measurements as given in article PMC7377239, “Cardiovascular Effects of Polychlorinated Biphenyls and Their Major Metabolites” (Environmental Health Perspectives, 2020).
Where a name gives a salt, the structure may show the parent alone. Read-outs that look alike come from different tables or passages of the source.

Key:
HUVECs = experiment: Tube formation (tubulogenesis) assay in HUVECs, 18 h; type: cell-based, human; conditions: Homo sapiens, HUVEC, 18 h, HUVECs; for activity at 0.1 µM: 0.10 µM; for minimal effective concentration: top concentration 100.00 µM
Method in brief: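 HUVECs (passage 1–5) seeded on reduced-growth-factor basement membrane and exposed to compounds overnight at 37°C, 5% CO2, in 2× maintenance medium with 12.5 ng/mL VEGF; 0.5% DMSO vehicle. Calcein AM-stained tube networks imaged and analysed; vehicle-normalized readouts fit to four-parameter logistic, POD set at one SD of vehicle means.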

[1] = system: iCell endothelial cells (human iPSC-derived ECs); experiment: High-content imaging cytotoxicity in iCell endothelial cells, 24 h; type: cell-based; conditions: Homo sapiens, Endothelial cell, iPSC-EC, 24 hr; for viability at 0.1 µM / activity at 0.1 µM: 0.10 µM; for minimal effective concentration: top concentration 100.00 µM
Method in brief: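 Human iPSC-derived endothelial cells (passages 1–5) were grown to a fibronectin-coated monolayer, then exposed 24 h at 37 °C with 0.5% DMSO vehicle. Staining was Hoechst 33342, MitoTracker Orange and calcein AM, read by high-content imaging. Point of departure came from 4-parameter logistic fits, with a 1-SD vehicle cutoff and 100 µM as the top concentration.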

[2] = 0.00 µM = 100.00, read-out: huvec.mtl.18hr
[3] = 0.00 µM = 100.00, read-out: huvec.tlps.18hr
[4] = 0.00 µM = 100.00, read-out: huvec.tta.18hr
[5] = 0.00 µM = 100.00, read-out: huvec.ttl.18hr
[6] = 0.00 µM control = 100.00, read-out: endo.cyto.24hr
[7] = 0.00 µM control = 100.00, read-out: endo.mito.24hr
[8] = 0.00 µM control = 100.00, read-out: endo.mitoint.24hr
[9] = 0.00 µM control = 100.00, read-out: endo.nma.24hr
[10] = 0.00 µM control = 100.00, read-out: endo.tc.24hrs
[11] = read-out: endo.mitoint.24hr POD

## O=S(=O)(O)Oc1ccc(-c2ccc(Cl)cc2)cc1 [4'-yl PCB 3 sulfate]
HUVECs; [2]
  activity at 0.01 µM: 107%
  activity at 0.1 µM: 106%
  activity at 1 µM: 117%
  activity at 10 µM: 93%
  activity at 100 µM: 57.3%
HUVECs; [3]
  activity at 0.01 µM: 166%
  activity at 0.1 µM: 138%
  activity at 1 µM: 173%
  activity at 10 µM: 102%
  activity at 100 µM: 38.9%
HUVECs; [4]
  activity at 0.01 µM: 116%
  activity at 0.1 µM: 140%
  activity at 1 µM: 125%
  activity at 10 µM: 93.4%
  activity at 100 µM: 53.2%
HUVECs; [5]
  activity at 0.01 µM: 109%
  activity at 0.1 µM: 133%
  activity at 1 µM: 123%
  activity at 10 µM: 88.6%
  activity at 100 µM: 59.7%
HUVECs; read-out: huvec.mtl.18hr POD
  minimal effective concentration: 11.2 µM
HUVECs; read-out: huvec.tlps.18hr POD
  minimal effective concentration: 100 µM
HUVECs; read-out: huvec.tta.18hr POD
  minimal effective concentration: 25.4 µM
HUVECs; read-out: huvec.ttl.18hr POD
  minimal effective concentration: 100 µM
[1]; [6]
  viability at 0.01 µM: 101%
  viability at 0.1 µM: 101%
  viability at 1 µM: 101%
  viability at 10 µM: 101%
  viability at 100 µM: 91.5%
[1]; [7]
  activity at 0.01 µM: 101%
  activity at 0.1 µM: 101%
  activity at 1 µM: 101%
  activity at 10 µM: 102%
  activity at 100 µM: 91.9%
[1]; [8]
  activity at 0.01 µM: 114%
  activity at 0.1 µM: 103%
  activity at 1 µM: 100%
  activity at 10 µM: 98%
  activity at 100 µM: 106%
[1]; [9]
  activity at 0.01 µM: 99.9%
  activity at 0.1 µM: 99.6%
  activity at 1 µM: 98.8%
  activity at 10 µM: 98.8%
  activity at 100 µM: 104%
[1]; [10]
  viability at 0.01 µM: 101%
  viability at 0.1 µM: 101%
  viability at 1 µM: 101%
  viability at 10 µM: 101%
  viability at 100 µM: 91.5%
[1]; read-out: endo.cyto.24hr POD
  minimal effective concentration: 100 µM
[1]; read-out: endo.mito.24hr POD
  minimal effective concentration: 100 µM
[1]; [11]
  minimal effective concentration: 100 µM
[1]; read-out: endo.nma.24hr POD
  minimal effective concentration: 100 µM
[1]; read-out: endo.tc.24hrs POD
  minimal effective concentration: 100 µM

## O=S(=O)(O)Oc1cc(-c2ccccc2)ccc1Cl [3-yl PCB 3 sulfate]
HUVECs; [2]
  activity at 0.01 µM: 95%
  activity at 0.1 µM: 100%
  activity at 1 µM: 94.1%
  activity at 10 µM: 91.9%
  activity at 100 µM: 62.3%
HUVECs; [3]
  activity at 0.01 µM: 89.1%
  activity at 0.1 µM: 109%
  activity at 1 µM: 116%
  activity at 10 µM: 112%
  activity at 100 µM: 58.1%
HUVECs; [4]
  activity at 0.01 µM: 78%
  activity at 0.1 µM: 141%
  activity at 1 µM: 124%
  activity at 10 µM: 114%
  activity at 100 µM: 63.7%
HUVECs; [5]
  activity at 0.01 µM: 73.3%
  activity at 0.1 µM: 137%
  activity at 1 µM: 123%
  activity at 10 µM: 110%
  activity at 100 µM: 61.1%
HUVECs; read-out: huvec.mtl.18hr POD
  minimal effective concentration: 11.5 µM
HUVECs; read-out: huvec.tlps.18hr POD
  minimal effective concentration: 65.8 µM
HUVECs; read-out: huvec.tta.18hr POD
  minimal effective concentration: 100 µM
HUVECs; read-out: huvec.ttl.18hr POD
  minimal effective concentration: 52.1 µM
[1]; [6]
  viability at 0.01 µM: 93.7%
  viability at 0.1 µM: 93%
  viability at 1 µM: 102%
  viability at 10 µM: 96.5%
  viability at 100 µM: 96.6%
[1]; [7]
  activity at 0.01 µM: 93.8%
  activity at 0.1 µM: 93.3%
  activity at 1 µM: 103%
  activity at 10 µM: 96.5%
  activity at 100 µM: 96.5%
[1]; [8]
  activity at 0.01 µM: 120%
  activity at 0.1 µM: 105%
  activity at 1 µM: 104%
  activity at 10 µM: 104%
  activity at 100 µM: 98.4%
[1]; [9]
  activity at 0.01 µM: 104%
  activity at 0.1 µM: 104%
  activity at 1 µM: 97.9%
  activity at 10 µM: 99.6%
  activity at 100 µM: 99.8%
[1]; [10]
  viability at 0.01 µM: 93.7%
  viability at 0.1 µM: 93%
  viability at 1 µM: 102%
  viability at 10 µM: 96.5%
  viability at 100 µM: 96.6%
[1]; read-out: endo.cyto.24hr POD
  minimal effective concentration: 100 µM
[1]; read-out: endo.mito.24hr POD
  minimal effective concentration: 100 µM
[1]; [11]
  minimal effective concentration: 100 µM
[1]; read-out: endo.nma.24hr POD
  minimal effective concentration: 100 µM
[1]; read-out: endo.tc.24hrs POD
  minimal effective concentration: 100 µM
